Experimental data taken from patent publication US11427549B2, “Pyrimidinyloxy benzo-fused compounds as herbicides” (FMC Corporation, priority 2017, dated 2022).

Tests used:
[1] = system: barnyardgrass (Echinochloa crus-galli); assay: Test B flooded paddy test, barnyardgrass; conditions: Echinochloa crus-galli, read-out: Plant response rating, Barnyardgrass (0 to 100 scale, 0 is no effect, 100 is complete control)
[2] = system: barnyardgrass (Echinochloa crus-galli); assay: Test A preemergence, barnyardgrass; format: in vivo; conditions: Echinochloa crus-galli, pre-emergence, 240 h, 0 to 100 scale (0 no effect, 100 complete control), read-out: Plant response rating, Barnyardgrass; for pest or weed control at 31 g/ha: 31 g ai/ha; for pest or weed control at 125 g/ha: 125 g ai/ha
[3] = system: ragweed (common ragweed, Ambrosia elatior); assay: Test A preemergence, ragweed; format: in vivo; conditions: Ambrosia artemisiifolia, pre-emergence, 240 h, 0 to 100 scale (0 no effect, 100 complete control), read-out: Plant response rating, Ragweed; for pest or weed control at 31 g/ha: 31 g ai/ha; for pest or weed control at 125 g/ha: 125 g ai/ha
[4] = system: pigweed (Amaranthus retroflexus); assay: Test A postemergence, pigweed; format: in vivo; conditions: Amaranthus retroflexus, post-emergence, 240 h, 0 to 100 scale (0 no effect, 100 complete control), read-out: Plant response rating, Pigweed; for pest or weed control at 31 g/ha: 31 g ai/ha; for pest or weed control at 125 g/ha: 125 g ai/ha
kochia (Kochia scoparia) [5] = assay: Test A preemergence, kochia; format: in vivo; conditions: Bassia scoparia, pre-emergence, 240 h, 0 to 100 scale (0 no effect, 100 complete control), read-out: Plant response rating, Kochia; for pest or weed control at 31 g/ha: 31 g ai/ha; for pest or weed control at 125 g/ha: 125 g ai/ha
[6] = system: ducksalad (Heteranthera limosa); assay: Test B flooded paddy test, ducksalad; conditions: Heteranthera limosa, read-out: Plant response rating, Ducksalad (0 to 100 scale, 0 is no effect, 100 is complete control)
[7] = system: galium (catchweed bedstraw, Galium aparine); assay: Test A postemergence, galium; format: in vivo; conditions: Galium, post-emergence, 240 h, 0 to 100 scale (0 no effect, 100 complete control), read-out: Plant response rating, Galium; for pest or weed control at 31 g/ha: 31 g ai/ha; for pest or weed control at 125 g/ha: 125 g ai/ha
rice (Oryza sativa) = assay: Test B flooded paddy test, rice; conditions: Oryza sativa, read-out: Plant response rating, Rice (0 to 100 scale, 0 is no effect, 100 is complete control)
[8] = system: ryegrass, Italian (Italian ryegrass, Lolium multiflorum); assay: Test A preemergence, ryegrass, Italian; format: in vivo; conditions: Lolium multiflorum, pre-emergence, 240 h, 0 to 100 scale (0 no effect, 100 complete control), read-out: Plant response rating, Ryegrass, Italian; for pest or weed control at 31 g/ha: 31 g ai/ha; for pest or weed control at 125 g/ha: 125 g ai/ha
[9] = system: blackgrass (Alopecurus myosuroides); assay: Test A postemergence, blackgrass; format: in vivo; conditions: Alopecurus myosuroides, post-emergence, 240 h, 0 to 100 scale (0 no effect, 100 complete control), read-out: Plant response rating, Blackgrass; for pest or weed control at 31 g/ha: 31 g ai/ha; for pest or weed control at 125 g/ha: 125 g ai/ha
[10] = system: wheat (Triticum aestivum); assay: Test A postemergence, wheat; format: in vivo; conditions: Triticum aestivum, post-emergence, 240 h, 0 to 100 scale (0 no effect, 100 complete control), read-out: Plant response rating, Wheat; for plant injury at 31 g/ha: 31 g ai/ha; for plant injury at 125 g/ha: 125 g ai/ha
[11] = system: ragweed (common ragweed, Ambrosia elatior); assay: Test A postemergence, ragweed; format: in vivo; conditions: Ambrosia artemisiifolia, post-emergence, 240 h, 0 to 100 scale (0 no effect, 100 complete control), read-out: Plant response rating, Ragweed; for pest or weed control at 31 g/ha: 31 g ai/ha; for pest or weed control at 125 g/ha: 125 g ai/ha
[12] = system: ryegrass, Italian (Italian ryegrass, Lolium multiflorum); assay: Test A postemergence, ryegrass, Italian; format: in vivo; conditions: Lolium multiflorum, post-emergence, 240 h, 0 to 100 scale (0 no effect, 100 complete control), read-out: Plant response rating, Ryegrass, Italian; for pest or weed control at 31 g/ha: 31 g ai/ha; for pest or weed control at 125 g/ha: 125 g ai/ha
kochia (Kochia scoparia) [13] = assay: Test A postemergence, kochia; format: in vivo; conditions: Bassia scoparia, post-emergence, 240 h, 0 to 100 scale (0 no effect, 100 complete control), read-out: Plant response rating, Kochia; for pest or weed control at 31 g/ha: 31 g ai/ha; for pest or weed control at 125 g/ha: 125 g ai/ha
corn (Zea mays) = assay: Test A postemergence, corn; format: in vivo; conditions: Zea mays, post-emergence, 240 h, 0 to 100 scale (0 no effect, 100 complete control); for Corn plant response rating (crop injury, 0 = no effect, 100 = complete kill) at 31 g/ha: 31 g ai/ha; for Corn plant response rating (crop injury, 0 = no effect, 100 = complete kill) at 125 g/ha: 125 g ai/ha
[14] = system: barnyardgrass (Echinochloa crus-galli); assay: Test A postemergence, barnyardgrass; format: in vivo; conditions: Echinochloa crus-galli, post-emergence, 240 h, 0 to 100 scale (0 no effect, 100 complete control), read-out: Plant response rating, Barnyardgrass; for pest or weed control at 31 g/ha: 31 g ai/ha; for pest or weed control at 125 g/ha: 125 g ai/ha
[15] = system: pigweed (Amaranthus retroflexus); assay: Test A preemergence, pigweed; format: in vivo; conditions: Amaranthus retroflexus, pre-emergence, 240 h, 0 to 100 scale (0 no effect, 100 complete control), read-out: Plant response rating, Pigweed; for pest or weed control at 31 g/ha: 31 g ai/ha; for pest or weed control at 125 g/ha: 125 g ai/ha

SMILES	pest or weed control at 250 g/ha [1] [%]	pest or weed control at 31 g/ha [2] [%]	pest or weed control at 125 g/ha [2] [%]	pest or weed control at 31 g/ha [3] [%]	pest or weed control at 125 g/ha [3] [%]	pest or weed control at 31 g/ha [4] [%]	pest or weed control at 125 g/ha [4] [%]	pest or weed control at 31 g/ha (kochia (Kochia scoparia) [5]) [%]	pest or weed control at 125 g/ha (kochia (Kochia scoparia) [5]) [%]	pest or weed control at 250 g/ha [6] [%]	pest or weed control at 31 g/ha [7] [%]	pest or weed control at 125 g/ha [7] [%]	plant injury at 250 g/ha (rice (Oryza sativa)) [%]	pest or weed control at 31 g/ha [8] [%]	pest or weed control at 125 g/ha [8] [%]	pest or weed control at 31 g/ha [9] [%]	pest or weed control at 125 g/ha [9] [%]	plant injury at 31 g/ha [10] [%]	plant injury at 125 g/ha [10] [%]	pest or weed control at 31 g/ha [11] [%]	also measured
O=C1OC(CCCCC(F)(F)F)Cc2c(Oc3ncc(Cl)cn3)cccc21 (centres unmarked) [Compound 31, 5-[(5-Chloro-2-pyrimidinyl)oxy]-3,4-dihydro-3-(5,5,5-trifluoropentyl)-1H-2-benzopyran-1-one]	0	0	0	0	0	40	50	0	0	0	0	30	0	0	0	0	0	0	0	0	pest or weed control at 125 g/ha [11]: 0%; pest or weed control at 31 g/ha [12]: 0%; pest or weed control at 125 g/ha [12]: 0%; pest or weed control at 31 g/ha (kochia (Kochia scoparia) [13]): 10%; pest or weed control at 125 g/ha (kochia (Kochia scoparia) [13]): 40%; Corn plant response rating (crop injury, 0 = no effect, 100 = complete kill) at 31 g/ha (corn (Zea mays)): 0%; Corn plant response rating (crop injury, 0 = no effect, 100 = complete kill) at 125 g/ha (corn (Zea mays)): 10%; pest or weed control at 31 g/ha [14]: 20%; pest or weed control at 125 g/ha [14]: 0%; pest or weed control at 31 g/ha [15]: 0%; pest or weed control at 125 g/ha [15]: 0%
O=C1OCC(CCC(F)(F)F)c2c(Oc3ncc(Cl)cn3)cccc21 (centres unmarked) [Compound 25, 5-[(5-Chloro-2-pyrimidinyl)oxy]-3,4-dihydro-4-(3,3,3-trifluoropropyl)-1H-2-benzopyran-1-one]	0	0	30	0	0	30	50	0	70	0	30	40	0	0	0	20	60	0	10	0	pest or weed control at 125 g/ha [11]: 30%; pest or weed control at 31 g/ha [12]: 0%; pest or weed control at 125 g/ha [12]: 0%; pest or weed control at 31 g/ha (kochia (Kochia scoparia) [13]): 30%; pest or weed control at 125 g/ha (kochia (Kochia scoparia) [13]): 60%; Corn plant response rating (crop injury, 0 = no effect, 100 = complete kill) at 31 g/ha (corn (Zea mays)): 20%; Corn plant response rating (crop injury, 0 = no effect, 100 = complete kill) at 125 g/ha (corn (Zea mays)): 20%; pest or weed control at 31 g/ha [14]: 0%; pest or weed control at 125 g/ha [14]: 10%; pest or weed control at 31 g/ha [15]: 10%; pest or weed control at 125 g/ha [15]: 100%
